Assay results as given in ChEMBL document CHEMBL3108715, “Pan-histone demethylase inhibitors simultaneously targeting Jumonji C and lysine-specific demethylases display high anticancer activities” (J Med Chem, 2014).
Activity calls are given as the source filed them. The calls are words filed in the database; no cut-off is given here.

Legend:
[1] = target: Lysine-specific histone demethylase 1A (Homo sapiens, UniProt O60341)
Description: Inhibition of human recombinant His-tagged LSD1 (171 to 836) assessed as hydrogen peroxide formation after 5 mins

[2] = target: T1, Lysine-specific demethylase 3A (Homo sapiens, UniProt Q9Y4C1)
T1 sequence (Q9Y4C1 whole entry): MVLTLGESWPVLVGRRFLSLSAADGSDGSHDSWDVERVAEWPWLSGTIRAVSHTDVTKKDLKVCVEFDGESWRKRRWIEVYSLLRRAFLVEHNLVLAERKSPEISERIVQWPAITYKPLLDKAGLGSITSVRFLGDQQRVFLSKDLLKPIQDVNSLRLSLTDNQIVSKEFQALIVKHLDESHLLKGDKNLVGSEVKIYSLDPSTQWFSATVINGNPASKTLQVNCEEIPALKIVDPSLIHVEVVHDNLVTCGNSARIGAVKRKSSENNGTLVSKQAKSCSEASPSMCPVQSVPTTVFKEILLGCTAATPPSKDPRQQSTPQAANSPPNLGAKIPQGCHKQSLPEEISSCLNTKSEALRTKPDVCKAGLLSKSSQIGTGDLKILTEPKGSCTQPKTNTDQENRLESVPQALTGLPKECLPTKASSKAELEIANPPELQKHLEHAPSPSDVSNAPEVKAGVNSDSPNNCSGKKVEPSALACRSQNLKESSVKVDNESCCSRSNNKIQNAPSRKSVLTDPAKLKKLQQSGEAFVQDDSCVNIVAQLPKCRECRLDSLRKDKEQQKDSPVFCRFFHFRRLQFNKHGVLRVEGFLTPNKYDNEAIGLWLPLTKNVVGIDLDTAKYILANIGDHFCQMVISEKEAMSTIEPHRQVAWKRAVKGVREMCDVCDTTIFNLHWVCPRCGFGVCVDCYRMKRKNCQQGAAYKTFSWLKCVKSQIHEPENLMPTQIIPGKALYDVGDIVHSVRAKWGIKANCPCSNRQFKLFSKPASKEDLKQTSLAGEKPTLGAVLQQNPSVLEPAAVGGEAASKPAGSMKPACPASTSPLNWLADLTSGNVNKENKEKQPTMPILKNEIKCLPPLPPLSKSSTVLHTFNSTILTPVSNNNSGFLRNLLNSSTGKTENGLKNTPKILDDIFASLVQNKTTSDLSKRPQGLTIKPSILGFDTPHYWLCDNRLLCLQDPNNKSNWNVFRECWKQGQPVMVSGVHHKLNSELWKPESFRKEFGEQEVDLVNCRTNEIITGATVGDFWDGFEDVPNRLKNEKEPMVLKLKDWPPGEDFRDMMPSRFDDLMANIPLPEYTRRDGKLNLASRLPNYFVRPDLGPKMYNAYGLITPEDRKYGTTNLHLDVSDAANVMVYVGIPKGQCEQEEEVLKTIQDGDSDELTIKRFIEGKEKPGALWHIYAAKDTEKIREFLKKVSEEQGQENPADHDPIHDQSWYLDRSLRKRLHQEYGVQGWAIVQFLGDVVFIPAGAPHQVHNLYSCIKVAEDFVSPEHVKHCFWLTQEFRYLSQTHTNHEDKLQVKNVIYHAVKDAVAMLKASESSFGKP
Description: Inhibition of recombinant JMJD1A (unknown origin) incubated for 15 mins prior to substrate addition by AlphaScreen method

LNCaP [3] = experiment: Inhibition of LSD1/JmjC in human LNCAP cells assessed as increase in H3K9me3 level at 50 uM by Western blotting analysis; type: cell-based
HCT-116 [4] = experiment: Inhibition of LSD1/JmjC in human HCT116 cells assessed as increase in H3K9me3 level at 50 uM by Western blotting analysis; type: cell-based
LNCaP [5] = experiment: Antimigratory activity against human LNCAP cells at 50 uM after 72 hrs; type: functional, cell-based
HCT-116 [6] = experiment: Inhibition of LSD1/JmjC in human HCT116 cells assessed as increase in H3K4me2/3 level at 50 uM by Western blotting analysis; type: cell-based
LNCaP [7] = experiment: Cytotoxicity against human LNCAP cells at 50 uM after 72 hrs; type: functional, cell-based
[8] = target: T2, Amine oxidase [flavin-containing] B (Homo sapiens, UniProt P27338)
T2 sequence (P27338 whole entry): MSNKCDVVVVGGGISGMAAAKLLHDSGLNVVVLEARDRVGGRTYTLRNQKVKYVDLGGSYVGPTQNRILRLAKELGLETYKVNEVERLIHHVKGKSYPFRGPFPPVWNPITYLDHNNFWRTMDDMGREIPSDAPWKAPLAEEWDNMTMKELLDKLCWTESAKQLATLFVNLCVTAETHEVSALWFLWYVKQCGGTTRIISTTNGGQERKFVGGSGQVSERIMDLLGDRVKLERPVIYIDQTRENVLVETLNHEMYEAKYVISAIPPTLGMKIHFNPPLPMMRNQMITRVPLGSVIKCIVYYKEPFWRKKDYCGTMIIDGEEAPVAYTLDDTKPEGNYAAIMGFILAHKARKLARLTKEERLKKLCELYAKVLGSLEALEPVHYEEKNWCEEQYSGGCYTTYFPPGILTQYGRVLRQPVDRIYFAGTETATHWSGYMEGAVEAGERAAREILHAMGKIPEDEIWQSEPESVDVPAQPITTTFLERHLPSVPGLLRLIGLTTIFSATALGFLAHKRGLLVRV
Description: Inhibition of human recombinant MAO-B expressed in Pichia pastoris using benzylamine as substrate after 5 mins

LNCaP [9] = experiment: Induction of apoptosis in human LNCAP cells at 10 to 100 uM after 48 hrs by propidium iodide staining-based FACS analysis; type: functional, cell-based
HCT-116 [10] = experiment: Antimigratory activity against human HCT116 cells at 50 uM after 72 hrs; type: functional, cell-based
[11] = target: T3, Amine oxidase [flavin-containing] A (Homo sapiens, UniProt P21397)
T3 sequence (P21397 whole entry): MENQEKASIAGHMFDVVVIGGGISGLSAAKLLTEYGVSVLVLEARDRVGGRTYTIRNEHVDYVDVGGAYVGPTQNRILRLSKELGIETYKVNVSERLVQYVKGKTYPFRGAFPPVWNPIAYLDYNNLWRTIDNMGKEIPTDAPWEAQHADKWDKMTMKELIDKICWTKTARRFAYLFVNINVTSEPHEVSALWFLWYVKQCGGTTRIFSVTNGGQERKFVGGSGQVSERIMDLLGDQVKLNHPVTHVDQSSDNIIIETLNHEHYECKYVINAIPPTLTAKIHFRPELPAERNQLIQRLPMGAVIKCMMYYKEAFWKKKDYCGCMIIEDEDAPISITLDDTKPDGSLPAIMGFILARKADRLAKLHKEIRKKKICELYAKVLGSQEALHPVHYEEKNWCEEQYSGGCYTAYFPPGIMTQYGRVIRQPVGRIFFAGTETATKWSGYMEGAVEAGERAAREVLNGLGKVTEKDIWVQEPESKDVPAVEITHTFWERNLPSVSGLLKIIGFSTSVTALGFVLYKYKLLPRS
Description: Inhibition of human recombinant MAO-A expressed in Pichia pastoris using kynuramine as substrate after 5 mins

LNCaP [12] = experiment: Cell cycle arrest in human LNCAP cells assessed as accumulation at pre-G1 phase at 50 uM after 30 hrs by propidium iodide staining-based FACS analysis; type: functional
LNCaP [13] = experiment: Cell cycle arrest in human LNCAP cells assessed as accumulation at G1 phase at 50 uM after 30 hrs by propidium iodide staining-based FACS analysis; type: functional

Row | IC50 [1] [µM] | IC50 [2] [µM] | IC50 [8] [µM] | IC50 [11] [µM] | Structure (SMILES) | inhibition (LNCaP [3]) | inhibition (HCT-116 [4]) | Activity (LNCaP [5]) | inhibition (HCT-116 [6]) | Activity (LNCaP [7]) | Activity (LNCaP [9]) | Activity (HCT-116 [10]) | Activity (LNCaP [12]) | Activity (LNCaP [13])
1 | 1.6 | 9.7 |  |  | N[C@H]1C[C@@H]1c1ccc(NC(=O)CCCCNC(=O)c2ccc(O)c3ncccc23)cc1 (relative stereo) |  |  |  |  |  |  |  |  | 
2 | < 1 | 12 |  |  | N[C@H]1C[C@@H]1c1ccc(NC(=O)CCCNC(=O)c2ccc(O)c3ncccc23)cc1 (relative stereo) |  |  |  |  |  |  |  |  | 
3 | < 1 | 31 | 81 | 8.9 | Cl.N[C@@H]1C[C@H]1c1ccc(NC(=O)c2ccc(O)c3ncccc23)cc1 (relative stereo) | Active | Active | inactive | Active | Active | Active | inactive | Active | >=90%
4 | < 1 | 37 | 43.3 | < 1 | COC(=O)c1ccnc(-c2cc(C(=O)Nc3ccc([C@@H]4C[C@H]4N)cc3)ccn2)c1.Cl (relative stereo) | Active | Active | inactive | Active | Active | Active | Active | Active | >=90%
5 | 2.2 | 0.14 | 47 | 35.4 | N[C@@H]1C[C@H]1c1ccc(NC(=O)c2ccnc(-c3cc(C(=O)O)ccn3)c2)cc1 (relative stereo) |  |  |  |  |  |  |  |  | 
6 | 1 | 9.1 |  |  | Cl.N[C@H]1C[C@@H]1c1ccc(NC(=O)CCCCCNC(=O)c2ccc(O)c3ncccc23)cc1 (relative stereo) |  |  |  |  |  |  |  | Active | >=90%
7 | > 100 | 1.1 |  |  | COC(=O)c1ccnc(-c2cc(C(=O)O)ccn2)c1 |  |  |  |  |  |  |  |  | 
